Format in all cases: in vivo
In data set [1] the test system is MRL-(Fas)lpr mice. Kind of data set: Intravenous recombinant Cat-S injection: albuminuria and glomerular ultrastructure (TEM). Particulars: 10 µg recombinant Cat-S i.v. How it is done: (§1) Four-week-old female MRL-(Fas)lpr mice were purchased from Harlan Winkelmann (Borchen, Germany) and kept under pathogen-free conditions in a 12 hour light and dark cycle with free access to food and water. All animal experiments were performed in accordance with the European protection laws of animal welfare, and with approval by the local government authorities Regierung von Oberbayern (reference number: 55.2.1-54-2532.2-11-12). At 11 or 15 weeks of age only mice with proteinuria (Albustix, Bayer AG, Leverkusen, Germany) were randomized into five different groups (n = 10) receiving different medicated diets: Three groups were fed with chow mixed with either 3, 10 or 30 mg/kg/day RO5459072, another group’s chow was mixed with 100 mg/kg/day mycophenolate mofetil (MMF), and one group received a standard diet (vehicle). The dose of MMF was chosen according to several studies reporting strong efficacy on SLE and lupus nephritis in MRL-(Fas)lpr mice[24]–[26]. […] At the age of 19 weeks all mice were sacrificed by cervical dislocation. Blood and urine samples were collected at different time points as indicated. In other experiments 7 week old female MRL-(Fas)lpr mice were randomized into three groups (n = 3) to receive a single intravenous injection of 10 µg sterile recombinant Cat-S and one group receiving vehicle (100 µl sterile PBS). One of the Cat-S groups was pretreated with 30 mg/kg/day RO5459072 starting one week prior to Cat-S injection; another group was pretreated with a total of four daily intra-peritoneal injections of the PAR-2 inhibitor GB83 (10 mg/kg).
Urinary albumin/creatinine ratios were determined using the Mouse Albumin ELISA Quantitation set (Bethyl Laboratories, Montgomery, TX) and the Creatinine FS kit (DiaSys Diagnostic Systems, Holzheim, Germany)[44]. BUN levels were determined in plasma samples using a Urea FS kit (DiaSys Diagnostic Systems). Mouse IgM, IgG and its isotypes IgG1, IgG2a and IgG2b plasma levels were measured using ELISA Sets (Bethyl Laboratories) at a plasma dilution of 1:1,000 to 1:100,000. Double-stranded DNA IgG and IgM antibodies were quantified as described. Briefly, 96 well Nunc-Immuno plates (Thermo Fisher Scientific, Roskilde, Denmark) were coated with poly-L-lysine (1:1 diluted with PBS) and incubated for two hours. […] Absorbance was measured at 450 nm using a Tecan Microplate Reader (Biotek, Winnoski, VT). Indirect immunofluorescence was used to quantify ANA in mouse plasma. […]
Mouse kidney tissue was fixed in 2% paraformaldehyde/2% glutaraldehyde and 0.1M sodium phosphate buffer (pH 7.4) for 24 hours and processed as described. Samples were analyzed with a 1200EX electron microscope (JEOL, Tokyo, Japan).

Data set [2] deals with MRL-(Fas)lpr mice. Nature of the data set: Experimental lupus nephritis, late onset of treatment week 15 to 19. Particulars: late onset week 15-19. On the procedure: To further assess the potency of Cat-S inhibition to control advanced lupus nephritis we performed identical experiments with the highest dose of RO5459072 and MMF, which were not initiated before week 15 of age and continued for only 4 weeks and terminated again at week 19.
as §1
(§2) Kidney tissue samples were collected from all mice and fixed overnight in 4% buffered formalin. Subsequently the fixed tissue samples were embedded in paraffin and cut into 4 µm thick serial sections. Kidney paraffin sections were stained with periodic acid-Schiff (PAS) reaction using standardized protocols as described. Scoring of lupus nephritis activity and chronicity indices was performed according to human lupus nephritis, [43]. Methenamine silver staining was performed on paraffin embedded kidney sections and semiquantitatively scored form 0–3 by a blinded observer. For immunostaining the following primary antibodies were used: anti-mouse CD3 (Abcam, Cambridge, UK), complement C3c (Biobyt Ltd, Cambridge, UK), CD31 (Dianova GmbH, Hamburg, Germany), WT1 (Santa Cruz Biotechnology, Dallas, Texas) and nephrin (Acris Antibodies, San Diego, CA). The immunostaining for C3c and CD31 were analyzed using the ImageJ software by measuring positively stained area and dividing it by the total area of the glomerulus and reported as percentage of +ve area. Sections stained for WT1/nephrin and CD3 were evaluated by counting positive cells per glomerulus. All the morphometric analysis were carried out in a blinded fashion.
(§3) Urinary albumin/creatinine ratios were determined using the Mouse Albumin ELISA Quantitation set (Bethyl Laboratories, Montgomery, TX) and the Creatinine FS kit (DiaSys Diagnostic Systems, Holzheim, Germany)[44]. BUN levels were determined in plasma samples using a Urea FS kit (DiaSys Diagnostic Systems). Mouse IgM, IgG and its isotypes IgG1, IgG2a and IgG2b plasma levels were measured using ELISA Sets (Bethyl Laboratories) at a plasma dilution of 1:1,000 to 1:100,000. Double-stranded DNA IgG and IgM antibodies were quantified as described. Briefly, 96 well Nunc-Immuno plates (Thermo Fisher Scientific, Roskilde, Denmark) were coated with poly-L-lysine (1:1 diluted with PBS) and incubated for two hours. After washing the plates, the plates were coated with 1 µg/ml mouse tail dsDNA sparing the wells for standards, which were coated with anti-mIgG and anti-mIgM (Bethyl Laboratories). […]

The subject of data set [3] is MRL-(Fas)lpr mice. Kind of data set: Experimental SLE and lupus nephritis, treatment week 11 to 19. On the procedure:
as §1, §2
as §3, with “Laboratories). The standard curve was fixed from purified mIgG and mIgM (Bethyl Laboratories). The plasma samples were diluted 1:1,000 and added into the wells. After 1 h the assay was developed using HRP-labelled goat anti-mIgG and anti-mIgM and TMB substrate (BD Bioscience, San Diego, CA).” for “Laboratories).”

SMILES strings stand for the structures. “Also recorded” adds a separate entry of the source.

For `CC[C@H](C)[C@H](NC(=O)[C@H](CC1CCCCC1)NC(=O)c1ccno1)C(=O)N1CCC2(CCc3ccccc32)CC1` [GB83, reference compound], the Cat-S-induced albuminuria entry with MRL-(Fas)lpr mice [1] (30 min, RO5459072 30 mg/kg/day pretreatment, GB83 10 mg/kg i.p.) is reported as “completely prevented; also recorded: entirely blocked”. Also, in the data set on MRL-(Fas)lpr mice [1] (24 h), the “Cat-S-induced glomerular endothelial cell injury (TEM)” value is given as “completely prevented”.

In the case of `COc1c(C)c2c(c(O)c1C/C=C(\C)CCC(=O)OCCN1CCOCC1)C(=O)OC2` [MMF, mycophenolate mofetil, reference compound], in the data set with MRL-(Fas)lpr mice [2], the “anti-dsDNA IgM” value is “did not affect”; the “lupus nephritis disease chronicity index” value is given as “failed to significantly suppress”; the “plasma IgM levels” value was “trend toward lower”; the “proteinuria and BUN at week 19 compared to control mice” value was “significantly reduced”. In addition, in the data set on MRL-(Fas)lpr mice [2] (highest dose of RO5459072, MMF), the “plasma IgG and its isotypes and anti-dsDNA IgG” value is on record as “had no effect”. Moreover, in the data set with MRL-(Fas)lpr mice [3] (medicated diets, throughout the study period), the “food intake or body weight between groups” value is listed as “no significant difference”. Also, in the data set on MRL-(Fas)lpr mice [3] (real time PCR, kidney), the “intrarenal mRNA expression of IL-6, MCP-1/CCL2, RANTES/CCL5 and CXCL2” value is “suppressed”; the “intrarenal mRNA expression of TNF-α, IFN-γ and SDF-1/CXCL12” value is on record as “remained unaffected”. Moreover, in the data set with MRL-(Fas)lpr mice [3] (week 11-19), the “blood urea nitrogen (BUN) over time” value is “prevented the progressive increase”. Moreover, in the data set on MRL-(Fas)lpr mice [3] (week 11-19, ELISA), the “total levels of plasma IgM” value is “suppressed plasma IgM levels below baseline”. Moreover, the “plasma dsDNA IgG levels (IgG autoantibodies)” value in the data set with MRL-(Fas)lpr mice [3] (week 11-19, RO5459072 highest dose, MMF 100 mg/kg/day, ELISA) was “does not reduce”. Besides, the “spleen CD11c+/CD11b+/MHCII+ antigen-presenting cells” value with MRL-(Fas)lpr mice [3] (week 11-19, flow cytometry) is listed as “suppressed”. The “integrity of the glomerular vasculature (CD31 staining)” value with MRL-(Fas)lpr mice [3] (week 19) is “improved”.
